In article PMC11094580 (EFSA Journal, 2024):
Like-named read-outs stand apart in the source and are kept apart here.

Columns and labels:
[1] = ref Gardana et al. (2007), cited from earlier work
Wistar rats [2] = test: In vivo comet assay in liver and duodenum; design: species or system rat; conditions: positive control 200 mg/kg bw
Wistar rats [3] = test: In vivo micronucleus assay in peripheral blood; design: species or system rat; conditions: positive control, 10 mg/kg bw, 48 h before sacrifice
[4] = system: Intestinal bacteria isolated from human faeces; conditions: 5 mg flavonoids in 50 mL broth, 2 days, anaerobic; ref Kim et al. (1998); cited from earlier work
Clostridium orbiscindens = conditions: ref Schoefer et al. (2003); cited from earlier work

For COc1ccc([C@@H]2CC(=O)c3c(O)cc(O)cc3O2)cc1O [hesperetin, reference compound], the “mean C max (plasma hesperetin)” value ([1]; BOJ 150 mL, 51 mg hesperetin) is listed as 43 ng/mL and the “mean C max (plasma hesperetin)” value ([1]; BOJ 300 mL, 102 mg hesperetin) is listed as 80 ng/mL.
For CCOS(C)(=O)=O [EMS, ethyl methanesulfonate], the “% tail intensity” value (Wistar rats [2]; duodenum) was 19.67% and the “% tail intensity” value (Wistar rats [2]; liver) was 18.30%.
For O=P1(N(CCCl)CCCl)NCCCO1 (stereo not shown) [CPA, cyclophosphamide, reference compound], the “% MNPCE frequency” value (Wistar rats [3]) was 0.93 ± 0.16%.
For C[C@@H]1O[C@@H](O[C@H]2[C@H](Oc3cc(O)c4c(c3)O[C@H](c3ccc(O)cc3)CC4=O)O[C@H](CO)[C@@H](O)[C@@H]2O)[C@H](O)[C@H](O)[C@H]1O [naringin, reference compound], the “Results: bacterial metabolism” value [4] is given as “metabolised to naringenin at early time” and the “Results: conversion by C. orbiscindens” value (Clostridium orbiscindens) is given as “did not convert”.
